In paper PMC7763603, “Structural Basis for Design of New Purine-Based Inhibitors Targeting the Hydrophobic Binding Pocket of Hsp90” (International Journal of Molecular Sciences, 2020):
Like-named read-outs stand apart in the source and are kept apart here.

Assays:
[1] = biological target: T1, human recombinant N-terminal Hsp90α (Homo sapiens, UniProt P07900); assay: Fluorescence polarization competition assay with FITC-GM probe (Reaction Biology Corporation); assay type: binding; conditions: for IC50: 10-dose, threefold serial dilution starting at 100 μM, mean of two experiments; for inhibition at 10 µM: read-out: Hsp90α % Inhibition @10 μM
T1 construct: human recombinant N-terminal Hsp90α protein; purchased Reaction Biology Corporation (RBC, Malvern, PA, USA; assay service)

MCF-7 cells = assay: MTT antiproliferative assay, MCF-7; assay type: cell-based, human; conditions: for inhibition at 10 µM / GI50: Homo sapiens, MCF7, 72 h; for inhibition at 10 µM: read-out: MCF-7 % Inh. at 10 μM; for GI50: mean ± SEM of two experiments
Method: The growth inhibitory effects of the test compounds, at 10 µM dose, were determined after 72 h incubation using the 3-(4,5-dimethylthiazol-2-yl)-2,5-diphenyl tetrazolium bromide (MTT) assay. […] Such modest cellular outcomes of those purine derivatives may be attributed to their lower lipophilic characters, which in turn restrict their cellular permeability into cancer cells. […] The 2-phenyloxazole-substituted purine 8 exerted reasonable antiproliferative activity, with GI values of 33.27% and 37.46% against MCF-7 and SK-BR-3 cells, respectively.
(§1) Cytotoxic activity of certain Hsp90 inhibitors against human cancer cell lines (MCF-7, SK-BR-3, and HCT116) was investigated using the MTT assay following the reported procedure. Cells were seeded into 96-well plates at a density of 3000 cells per well (MCF-7, HCT116, SK-BR-3 cells per each well). The compounds were added into cells and incubated for 72 h. Then, absorbance at 450 nm was measured using a Microplate Absorbance Reader (Bio-Rad, Hercules, CA, USA).

HCT116 cells = assay: MTT antiproliferative assay, HCT116; assay type: cell-based, human; conditions: for inhibition at 10 µM: read-out: HCT116 % Inh. at 10 μM; for GI50: mean ± SEM of two experiments
Method: The growth inhibitory effects of the test compounds, at 10 µM dose, were determined after 72 h incubation using the 3-(4,5-dimethylthiazol-2-yl)-2,5-diphenyl tetrazolium bromide (MTT) assay.
as §1

SK-BR-3 cells = assay: MTT antiproliferative assay, SK-BR-3; assay type: cell-based, human; conditions: for inhibition at 10 µM: read-out: SK-BR-3 % Inh. at 10 μM; for GI50: mean ± SEM of two experiments
Source text: […] […] Such modest cellular outcomes of those purine derivatives may be attributed to their lower lipophilic characters, which in turn restrict their cellular permeability into cancer cells. […] The 2-phenyloxazole-substituted purine 8 exerted reasonable antiproliferative activity, with GI values of 33.27% and 37.46% against MCF-7 and SK-BR-3 cells, respectively.
as §1

[2] = biological target: T2, mHsp90ND (N-terminal domain of mouse Hsp90α) (Mus musculus, UniProt P07901); assay: Isothermal titration calorimetry (ITC); assay type: binding
T2 construct: Hsp90α (residues 9–225 Swiss Prot entry: P07901); His6 (N); made in house; host or cells: Escherichia coli BL21 (DE3) codon plus RIL
Method: The PCR product was cloned into plasmid pET28a, which encodes a purification tag consisting of the amino acids His6 at the N-terminal of the protein. mHsp90ND was expressed in Escherichia coli (E. coli) BL21 (DE3) codon plus RIL (Stratagene) cell. The cells were lysed by sonication in 50 mM Tris-HCl (pH 7.4), 100 mM NaCl, 2 mM 2-mercaptoethanol, and 0.2 mM phenylmethylsulfonyl fluoride (PMSF). After centrifugation, mHsp90ND in the supernatant was purified by Ni^2+-chelated Hi-trap chelating column, and HiLoad 26/60 200pg column (GE healthcare, Chicago, IL, USA). After the final step, mHsp90ND was stored in 20 mM Tris-HCl (pH 7.4), 100 mM NaCl, and 1 mM dithiothreitol (DTT).
Stock solutions of those compounds were prepared in dimethyl sulfoxide (DMSO) at 100 mM concentration and stored at −20 °C. The ITC buffer contained 20 mM Tris (pH 8.0), 100 mM NaCl, and up to 2% DMSO. […] The experimental raw data were corrected for dilution by subtracting the values for buffer alone and then fit by a one-site binding model. Titration data were fit using a nonlinear least squares curve-fitting algorithm with three floating variables: stoichiometry, binding constant (KD), and change of enthalpy of interaction.

[3] = design: method as in PMID 22938030; conditions: in mice; cited from earlier work
Hsp90α = Hsp90α (Homo sapiens, UniProt P07900); assay: Colorimetric determination of ATPase activity of Hsp90; assay type: biochemical; conditions: 50 µM compound, 30 min, compared to positive control with Hsp90α, duplicate
Method: The reaction was terminated by adding 200 μL reagent buffer. Followed by incubation with reagent buffer for 30 min at the room temperature, the absorbance was measured at 620 nm using a Biotek-Synergy Neo-Plate Reader (BioTek Instruments, Winooski, VT, USA).

[4] = tested on: HSP90 client proteins (EGFR, Akt), Hsp70 in MCF7 cells; assay: Western blot of HSP90 client proteins and Hsp70 in MCF7 cells; assay type: cell-based, human; conditions: 24 h
Method: Furthermore, the effect of compound 14 on cellular biomarkers of the HSP90 inhibition was evaluated to obtain insights about the molecular mechanisms triggering its anticancer activity. MCF7 cells were incubated with various doses of compound 14 (0.5, 1, 5, 10, and 20 μM) for 24 h, and the expression levels of HSP90 client proteins (EGFR, Akt, and Cdk4), Hsp90, HSP70, and glyceraldehyde-3-phosphate dehydrogenase (GAPDH) were determined by Western blot analysis (Figure 6).
MCF7 cells were seeded in 60 mm culture dishes, incubated overnight, and treated with the indicated concentrations of compound 14 or geldanamycin for 24 h. Cells were then harvested and lysed on ice by radioimmunoprecipitation assay (RIPA) buffer (23 mM Tris-HCl (pH 7.6), 130 mM NaCl, 1% nonidet P-40 (NP-40), 1% sodium deoxycholate, 0.1% SDS) supplemented with protease and phosphatase inhibitor cocktails, and […] of lysate perlane was separated by SDS-PAGE, followed by transferring to a polyvinylidene fluoride (PVDF) membrane (Bio-Rad, Hercules, CA, USA). The membrane was blocked with 5% skim milk in TBS-T, and then incubated with the corresponding primary antibody (EGFR, Akt, Hsp90, Hsp70, or GAPDH). After binding of an appropriate secondary antibody (Santa Cruz, CA, USA) coupled to horseradish peroxidase, proteins were visualized by enhanced chemiluminescence (ECL) according to the instructions of the manufacturer (GE healthcare, Chicago, IL, USA).

[5] = single dose 10 μM, duplicate, FITC-GM probe
[6] = Homo sapiens, HCT-116, 72 h, 10 μM
[7] = Homo sapiens, SK-BR-3, 72 h, 10 μM
[8] = ITC, 25 °C, one-site binding model
[9] = ITC, 25 °C, one-site binding model, read-out: KD

## Nc1nc(Cl)c2c(ncn2Cc2cnc(-c3ccccc3)o2)n1 [Compound 9, 6-Chloro-7-((2-phenyloxazol-5-yl)methyl)-7H-purin-2-amine]
[1]; [5]
  Hsp90α % Inhibition @10 μM: fluorescence background that interfered with the assay

## CC(C)c1cc(Cn2cnc3c(Cl)nc(N)nc32)on1 [Compound 6c, 6-Chloro-9-((3-isopropylisoxazol-5-yl)methyl)-9H-purin-2-amine]
MCF-7 cells; 10 μM
  inhibition at 10 µM: 11.9%
HCT116 cells; [6]
  inhibition at 10 µM: -0.6%
[1]; FITC-GM probe
  IC50: 203 nM
[1]; [5]
  inhibition at 10 µM: 77.3%
SK-BR-3 cells; [7]
  inhibition at 10 µM: 33.2%
[2]; ITC, 25 °C
  ∆H: -15.8 ± 0.5 kcal/mol
  ∆S: −24.8 cal/mol/deg
[2]; [8]
  N (binding stoichiometry): 1.00
[2]; [9]
  Kd: 680 nM

## C=CCNC1=C2C[C@@H](C)C[C@H](OC)[C@H](O)[C@@H](C)/C=C(\C)[C@H](OC(N)=O)[C@@H](OC)/C=C\C=C(/C)C(=O)NC(=CC1=O)C2=O [Compound 17-AAG, Allyl-aminogeldanamycin, reference compound]
MCF-7 cells; 10 μM
  inhibition at 10 µM: 79.7%
MCF-7 cells
  GI50: 498 ± 60 nM
HCT116 cells; [6]
  inhibition at 10 µM: 88.9%
HCT116 cells; Homo sapiens, HCT-116, 72 h
  GI50: 205 ± 9 nM
[1]
  inhibition at 10 µM: 100%
SK-BR-3 cells; [7]
  inhibition at 10 µM: 74.4%
SK-BR-3 cells; Homo sapiens, SK-BR-3, 72 h
  GI50: 140 ± 12 nM
[2]
  Kd: 2900 nM
  N (binding stoichiometry): 0.98
  ∆H: -8.6 ± 0.4 kcal/mol
  ∆S: −3.66 cal/mol/deg

## 6-Chloro-9-((2-phenyloxazol-5-yl)methyl)-7H-purin-2-amine [Compound 8]
MCF-7 cells; 10 μM, 72 h
  MCF-7 % Inh. at 10 μM: 33.27%
HCT116 cells; 10 μM, 72 h
  HCT116 % Inh. at 10 μM: 19.19%
HCT116 cells; 72 h
  GI50: 23400 ± 2940 nM
[1]; [5]
  Hsp90α % Inhibition @10 μM: 48.7%
SK-BR-3 cells; 10 μM, 72 h
  SK-BR-3 % Inh. at 10 μM: 37.46%
SK-BR-3 cells; 72 h
  GI50: 22500 ± 700 nM

## Cc1ccc(C#CCn2cnc3c(Cl)nc(N)nc32)cc1 [Compound 10, 6-Chloro-9-(3-(p-tolyl)prop-2-yn-1-yl)-9H-purin-2-amine]
[1]; [5]
  inhibition at 10 µM: 22.2%

## CC(C)(C)c1cc(Cn2cnc3c(Cl)nc(N)nc32)on1 [Compound 6b, 9-((3-(tert-Butyl)isoxazol-5-yl)methyl)-6-chloro-9H-purin-2-amine]
MCF-7 cells; 10 μM
  inhibition at 10 µM: 15.7%
HCT116 cells; [6]
  inhibition at 10 µM: 26%
[1]; 10 μM, FITC-GM probe
  potency relative to isoxazoline congener 4b (from % inhibition): 2.7 fold
[1]; FITC-GM probe
  IC50: 1760 nM
[1]; [5]
  inhibition at 10 µM: 95.8%
SK-BR-3 cells; [7]
  inhibition at 10 µM: 45.8%
SK-BR-3 cells; Homo sapiens, SK-BR-3, 72 h
  GI50: 26000 ± 1360 nM
[2]; ITC, 25 °C
  ∆H: -14.5 ± 0.4 kcal/mol
  ∆S: −19.4 cal/mol/deg
[2]; [8]
  N (binding stoichiometry): 0.97
[2]; [9]
  Kd: 440 nM

## Cc1ccc(-c2[nH]nnc2Cn2cnc3c(Cl)nc(N)nc32)cc1 [Compound 12, 6-Chloro-9-((5-(p-tolyl)-1H-1,2,3-triazol-4-yl)methyl)-9H-purin-2-amine]
[1]; [5]
  Hsp90α % Inhibition @10 μM: fluorescence background that interfered with the assay

## COc1c(C)cnc(Cn2cc(C#CCC(C)(C)O)c3c(Cl)nc(N)nc32)c1C [EC144]
[3]
  efficacy relative to BIIB021: approximately 20 fold

## CC(C)(C)C1=NOC(Cn2cnc3c(Cl)nc(N)nc32)C1 (centres unmarked) [Compound 4b, 9-((3-(tert-Butyl)-4,5-dihydroisoxazol-5-yl)methyl)-6-chloro-9H-purin-2-amine]
HCT116 cells; [6]
  inhibition at 10 µM: < 30%
[1]; [5]
  inhibition at 10 µM: 35.4%
other
  melting point: 198.3 to 200.8 °C
[2]; ITC, 25 °C
  ∆H: -19.8 ± 3.29 kcal/mol
  ∆S: −44.5 cal/mol/deg
[2]; [8]
  N (binding stoichiometry): 1.17
[2]; [9]
  Kd: 15600 nM

## Cc1ccc(C#CCn2cnc3nc(N)nc(Cl)c32)cc1 [Compound 11, 6-Chloro-7-(3-(p-tolyl)prop-2-yn-1-yl)-7H-purin-2-amine]
[1]; [5]
  Hsp90α % Inhibition @10 μM: fluorescence background that interfered with the assay

## CCOC(=O)c1cc(Cn2cnc3c(Cl)nc(N)nc32)no1 [Compound 7, Ethyl 3-((2-amino-6-chloro-9H-purin-9-yl)methyl)isoxazole-5-carboxylate]
[1]; [5]
  inhibition at 10 µM: 14.8%

## Cc1ccc(-c2[nH]nnc2Cn2cnc3nc(N)nc(Cl)c32)cc1 [Compound 13, 6-Chloro-7-((5-(p-tolyl)-1H-1,2,3-triazol-4-yl)methyl)-7H-purin-2-amine]
[1]; [5]
  Hsp90α % Inhibition @10 μM: fluorescence background that interfered with the assay

## Cc1ccc(Cn2cnc3c(Cl)nc(N)nc32)cc1 [Compound 14, 6-Chloro-9-(4-methylbenzyl)-9H-purin-2-amine]
MCF-7 cells; 10 μM
  inhibition at 10 µM: 55.1%
MCF-7 cells
  GI50: 16200 ± 710 nM
HCT116 cells; [6]
  inhibition at 10 µM: 46.5%
[1]; FITC-GM probe
  IC50: 1000 nM
[1]; [5]
  inhibition at 10 µM: 95.4%
SK-BR-3 cells; [7]
  inhibition at 10 µM: 60.9%
SK-BR-3 cells; Homo sapiens, SK-BR-3, 72 h
  GI50: 15200 ± 2080 nM
Hsp90α
  activity at 50 µM: 83.6%
[4]; 10 μM
  EGFR expression level: remarkably decreased
[4]; 20 μM
  Akt expression level: remarkably decreased
[4]; 0.5-20 μM, dose-dependent
  Hsp70 expression level: upregulated
[2]; ITC, 25 °C
  ∆H: -17.8 ± 0.2 kcal/mol
  ∆S: −30.5 cal/mol/deg
[2]; [8]
  N (binding stoichiometry): 0.89
[2]; [9]
  Kd: 410 nM

## COc1c(C)cnc(Cn2cnc3c(Cl)nc(N)nc32)c1C [BIIB021, reference compound]
MCF-7 cells; 10 μM
  inhibition at 10 µM: 84.8%
MCF-7 cells
  GI50: 392 ± 30 nM
HCT116 cells; [6]
  inhibition at 10 µM: 86.2%
SK-BR-3 cells; [7]
  inhibition at 10 µM: 71.9%
SK-BR-3 cells; Homo sapiens, SK-BR-3, 72 h
  GI50: 347 ± 23 nM
